From the OPERA property sets (Mansouri et al. 2018)

Conditions: for log10 BCF / log10 biotransformation half-life (days): fish

Structure (SMILES) | boiling point | melting point | other results
CCN(CC)[N+](=O)[O-] | 206 °C | – | –
ClCCOc1ccccc1 | 218 °C | 28 °C | –
Brc1ccc(Oc2ccccc2Br)c(Br)c1 | – | – | logP: 5.74
O=P(OC(CCl)CCl)(OC(CCl)CCl)OC(CCl)CCl | – | 27 °C | ready biodegradability: not readily biodegradable; log10 BCF: 1.08; log10 biotransformation half-life (days): -0.52
CC(/C=C/C=C(\C)C(=O)O)=C\C=C\C=C(C)\C=C\C=C(/C)C(=O)O | – | 286 °C | –
ICI | 182 °C | 6.1 °C | log10 Henry constant (atm·m³/mol): -3.49; log10 vapour pressure (mmHg): 0.0792
COc1cc(OC)nc(Sc2cccc(Cl)c2C(=O)[O][Na])n1 | – | – | log10 Koc (L/kg): 1.15
CCOC(=O)C(C(=O)OCC)c1ccccc1 | – | 16.5 °C | –
Nc1ncnc2c1ncn2[C@@H]1O[C@@H]2COP(=O)(O)O[C@H]2[C@H]1O | – | 220 °C | –
C=CCOP(=O)(OCC=C)OCC=C | – | – | log10 BCF: 0.08
CCC(C)(O)CC(C)C (centres undefined) | 152 °C | – | –
O=C=O | -78.5 °C | -56.5 °C | log10 vapour pressure (mmHg): 4.68
CCCCCCCCC | 151 °C | -53.5 °C | log10 biodegradation half-life (days): 0.954; log10 vapour pressure (mmHg): 0.648; ready biodegradability: readily biodegradable; log10 biotransformation half-life (days): 0.97
O=C(CCCN1CCC(n2c(=O)[nH]c3ccccc32)CC1)c1ccc(F)cc1 | – | 171 °C | –
CCCCC(=O)O[C@]1(C(=O)CO)CC[C@H]2[C@@H]3CCC4=CC(=O)C=C[C@]4(C)[C@H]3[C@@H](O)C[C@@]21C | – | 212 °C | –
Cc1cc(Cl)c(Cl)cc1Cl | 231 °C | 82.4 °C | log10 Henry constant (atm·m³/mol): -2.82; log10 BCF: 3.87; log10 biotransformation half-life (days): 2.01
CN(C)c1ccc(N=Nc2ccc([N+](=O)[O-])cc2)cc1 | – | 236 °C | log10 vapour pressure (mmHg): -10
CCCCCCCCCCCCCCCCCC(=O)OCCOCCOCCOCCO | – | 40 °C | –
O=c1[nH]cc(F)c(=O)[nH]1 | – | 283 °C | –
COc1ccnc2ccccc12 | 245 °C | 41 °C | –
O=C1CCCCCCCCCCCCCCO1 | – | 32 °C | –
O=C(N[C@H](CO)[C@H](O)c1ccc([N+](=O)[O-])cc1)C(Cl)Cl | – | 150 °C | –

Structure (SMILES) | boiling point | melting point | other results
O=Cc1ccc(O)c([N+](=O)[O-])c1 | – | 141 °C | log10 vapour pressure (mmHg): -3.05
CCOc1ccc(Cl)cc1 | 213 °C | 21 °C | –
Cc1cc(C)cc(NC(=O)N(C)C)c1 | – | – | log10 Koc (L/kg): 1.73
CBr | 3.5 °C | -93.7 °C | log10 Henry constant (atm·m³/mol): -2.13; log10 Koc (L/kg): 1.34; log10 vapour pressure (mmHg): 3.21; ready biodegradability: not readily biodegradable
Nc1ncc(C=O)s1 | – | – | ready biodegradability: readily biodegradable
CCC(C)(C)Cl | 85.5 °C | -73.5 °C | –
CC(C)CCOCc1ccccc1 | 237 °C | – | –
CCCCOC(=O)c1ccccc1C(=O)OCc1ccccc1 | 370 °C | – | log10 Koc (L/kg): 3.72; log10 vapour pressure (mmHg): -5.08; ready biodegradability: readily biodegradable; log10 BCF: 1.21; log10 biotransformation half-life (days): -1.03
CC(=O)CCCC(=O)O | 274 °C | 13.5 °C | –
Cc1c(F)c(F)c(C)c(F)c1F | 144 °C | 36 °C | –
CN1CCCC(CO)C1 (centres undefined) | 142 °C | – | –
CCOCC(=O)O | 206 °C | – | –
Clc1ccc(C(Cl)(Cl)Cl)c(Cl)c1 | – | – | ready biodegradability: not readily biodegradable
CS(=O)(=O)O.Cc1ccc(N(CC2=NCCN2)c2cccc(O)c2)cc1 | – | 181 °C | –
Fc1ccc(N2CCNCC2)cc1 | – | 31.5 °C | –
c1cc2c(cn1)CCCC2 | 218 °C | 146 °C | –
Clc1ccccc1-c1ccccc1Cl | – | 61.5 °C | log10 Henry constant (atm·m³/mol): -3.64; log10 Koa: 7.18; log10 Koc (L/kg): 3.92; log10 vapour pressure (mmHg): -2.56; ready biodegradability: not readily biodegradable
O=c1[nH]c2ccccc2n1CCCN1CCN(C(c2ccccc2)c2ccccc2)CC1 | – | 154 °C | –
C1CC2C3CCC(C3)C2C1 (centres undefined) | – | – | log10 biodegradation half-life (days): 3
CCCCCCCCc1ccccc1Nc1ccccc1CCCCCCCC | – | – | ready biodegradability: not readily biodegradable
Cc1cnc2ccccc2c1C | 291 °C | 73.5 °C | –
C=COCCCCCCCCCCCCCCCCCC | – | 30 °C | –

Structure (SMILES) | boiling point | melting point | other results
CCCCCCCCCCCCCCCCCBr | 349 °C | 32 °C | log10 vapour pressure (mmHg): -4.74
CC(C)Oc1ccc(C(=O)NS(=O)(=O)c2ccc(N)cc2)cc1 | – | 172 °C | –
CC(C)OCCO | 145 °C | – | log10 Henry constant (atm·m³/mol): -6.04; ready biodegradability: not readily biodegradable
Nc1ccc(Cl)c(Cl)c1Cl | 292 °C | 73 °C | log10 Koc (L/kg): 2.6; log10 BCF: 2; log10 biotransformation half-life (days): -0.27
C=C(C)C(=O)CC | 118 °C | -69.5 °C | –
O=CCCCCC=O | – | -8 °C | –
C[C@@H]1O[C@@H](Oc2c(-c3ccc(O)c(O)c3)oc3cc(O)cc(O)c3c2=O)[C@H](O)[C@H](O)[C@H]1O | – | 170 °C | –
Brc1ccoc1 | 103 °C | – | –
CCC(C)(C)CC | 86 °C | -135 °C | log10 biodegradation half-life (days): 0.954; log10 vapour pressure (mmHg): 1.92
Clc1ccc(C(c2ccccc2Cl)C(Cl)(Cl)Cl)cc1 (centres undefined) | – | – | log10 Koa: 9.45; log10 vapour pressure (mmHg): -5.87; log10 biotransformation half-life (days): 1.71
CCCCC(=O)O | 186 °C | -34 °C | log10 Henry constant (atm·m³/mol): -6.33; log10 vapour pressure (mmHg): -0.708; ready biodegradability: readily biodegradable
COc1ccc(/C=C/NC=O)cc1 | – | 132 °C | –
CC(C)(C)c1cc(Cn2c(=O)n(Cc3cc(C(C)(C)C)c(O)c(C(C)(C)C)c3)c(=O)n(Cc3cc(C(C)(C)C)c(O)c(C(C)(C)C)c3)c2=O)cc(C(C)(C)C)c1O | – | – | ready biodegradability: not readily biodegradable
O=Nc1ccc(O)c(N=O)c1O | – | 168 °C | –
NS(=O)(=O)c1cc2c(cc1Cl)NC(C1CC3C=CC1C3)NS2(=O)=O (centres undefined) | – | 234 °C | –
Brc1cccc(-c2ccccc2)c1 | 300 °C | – | –
Clc1cc(-c2c(Cl)ccc(Cl)c2Cl)c(Cl)c(Cl)c1Cl | – | – | log10 Henry constant (atm·m³/mol): -4.85; log10 biotransformation half-life (days): 2.47
c1ccc(OC2CCCCC2)cc1 | 261 °C | – | –
O=C1CCCc2ccccc21 | – | 8 °C | –
Nc1nccs1 | – | 93 °C | ready biodegradability: not readily biodegradable
N[C@H](CCS)C(=O)O (racemic) | – | 226 °C | –
CC(C)(N=C=O)c1ccc(C(C)(C)N=C=O)cc1 | – | – | log10 vapour pressure (mmHg): -3.12

Structure (SMILES) | boiling point | melting point | other results
Nc1cc(Cl)c(Cl)c(Cl)c1Cl | – | – | log10 Koc (L/kg): 3.03; log10 BCF: 2.21
CCC1(C)CC(=O)NC1=O (centres undefined) | – | 65 °C | –
CC(C)C(O)C(C)(C)CO (centres undefined) | 232 °C | 51.5 °C | log10 vapour pressure (mmHg): -2.35; ready biodegradability: readily biodegradable; log10 BCF: 0; log10 biotransformation half-life (days): -1.34
COc1cc2c(c(O)c1OC)[C@H](C)NCC2 | – | 160 °C | –
CSc1nnc(C(C)(C)C)c(=O)n1N | – | 126 °C | log10 Koc (L/kg): 1.71; log10 vapour pressure (mmHg): -6.36
O=C(O)c1cc(Cl)c(Cl)c(Cl)c1Cl | – | 194 °C | –
Cc1c(Cl)cccc1Nc1ncccc1C(=O)O | – | 234 °C | –
Cc1ccccc1CC=O | 221 °C | – | –
Cc1ccc(C(C)(C)C)c(O)c1 | – | 46.5 °C | ready biodegradability: not readily biodegradable
CCCCCCCCC=O | 191 °C | – | log10 Henry constant (atm·m³/mol): -3.13; log10 vapour pressure (mmHg): -0.432
Cl.ClCCN(Cc1ccccc1)Cc1ccccc1 | – | 192 °C | –
CC1=CC(=O)c2c(O)cccc2C1=O | – | 78.5 °C | –
CCCCCCC(C)Nc1ccc(Nc2ccccc2)cc1 (centres undefined) | – | – | ready biodegradability: not readily biodegradable
CC(C)OC(C)(C)C | 87.6 °C | -88 °C | –
CCC(=O)c1ccc(C)cc1 | 236 °C | 7.2 °C | log10 vapour pressure (mmHg): -1.03
O=C(CCCN1CCN(c2ccccn2)CC1)c1ccc(F)cc1 | – | 74 °C | –
CCC(C)ON=O (centres undefined) | 68.5 °C | – | –
O=C(Cl)CCl | 106 °C | -22 °C | log10 vapour pressure (mmHg): 1.4
c1ccc2[nH]ncc2c1 | 269 °C | 148 °C | –
